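Cells were grown in 96-well plates and exposed to each compound for 48 hours at five concentrations; endpoints were interpolated linearly between bracketing concentrations, or set to the highest concentration if not reached. GI50 marks 50% less growth.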 Active and inactive are the calls of the source. Rule as the data show it: active = GI50 up to about 1.1 µM and inactive = higher.
Columns and labels:
Assay in all cases: NCI tumour cell line growth inhibition, 48 h
[1] = test system: NCI-H23
[2] = test system: HT-29
[3] = test system: LOX IMVI
[4] = test system: CCRF-CEM
[5] = test system: SF-539
[6] = test system: SK-OV-3
[7] = test system: HCT-116
[8] = test system: UACC-62
[9] = test system: MDA-MB-231
[10] = test system: 786-0
[11] = test system: NCI-H226
[12] = test system: PC-3
[13] = test system: MDA-MB-435
[14] = test system: SW-620
[15] = test system: HL-60
[16] = test system: HCC 2998
[17] = test system: SNB-19
[18] = test system: COLO 205
[19] = test system: HOP-62
[20] = test system: UACC-257
[21] = test system: U-251
[22] = test system: KM12
[23] = test system: DU-145
[24] = test system: NCI/ADR-RES
[25] = test system: ACHN
[26] = test system: Hs-578T
[27] = test system: OVCAR-4
[28] = test system: M14
[29] = test system: SF-268
[30] = test system: MOLT-4
[31] = test system: NCI-H460
[32] = test system: RXF 393
[33] = test system: RPMI-8226
[34] = test system: HCT-15
[35] = test system: MCF7
[36] = test system: K562
[37] = test system: OVCAR-8
[38] = test system: SF-295
[39] = test system: HOP-92
[40] = test system: SR
[41] = test system: IGROV-1
[42] = test system: T47D
[43] = test system: EKVX
[44] = test system: SK-MEL-5
[45] = test system: UO-31
[46] = test system: SK-MEL-2
[47] = test system: A498
[48] = test system: SK-MEL-28
[49] = test system: TK-10
[50] = test system: SNB-75
[51] = test system: CAKI-1
[52] = test system: BT-549
[53] = test system: Malme-3M
[54] = test system: A549
[55] = test system: SN12C
[56] = test system: OVCAR-5
[57] = test system: NCI-H522
[58] = test system: MDA-N
[59] = test system: OVCAR-3

Measured: GI50

OC(c1ccccc1)C(F)(F)c1nc2ccccc2o1 (centres undefined)
inactive: [1] > 100 µM | [2] > 100 µM | [3] > 100 µM | [4] 61.2 µM | [5] > 100 µM | [6] > 100 µM | [7] > 100 µM | [8] > 100 µM | [9] > 100 µM | [10] > 100 µM | [11] > 100 µM | [12] > 100 µM | [13] 82 µM | [14] > 100 µM | [15] > 100 µM | [16] > 100 µM | [17] > 100 µM | [18] > 100 µM | [19] > 100 µM | [20] > 100 µM | [21] > 100 µM | [22] > 100 µM | [23] 67.5 µM | [24] 89.3 µM | [25] > 100 µM | [26] > 100 µM | [27] > 100 µM | [28] > 100 µM | [29] > 100 µM | [30] 57.3 µM | [31] > 100 µM | [32] > 100 µM | [33] 70 µM | [35] > 100 µM | [36] 27.9 µM | [37] > 100 µM | [38] > 100 µM | [39] > 100 µM | [40] > 100 µM | [41] > 100 µM | [42] 55.3 µM | [43] > 100 µM | [44] 77.1 µM | [45] > 100 µM | [46] > 100 µM | [47] 14.7 µM | [48] > 100 µM | [49] > 100 µM | [50] > 100 µM | [51] > 100 µM | [52] > 100 µM
> 100 µM: [34]

CCOC(=O)Cn1nnc2ccc(Nc3nc4ccccc4nc3-c3ccccc3)cc21
inactive: [1] > 100 µM | [2] > 100 µM | [3] > 100 µM | [4] > 100 µM | [5] 59.6 µM | [6] 90.8 µM | [7] 95.3 µM | [8] > 100 µM | [53] > 100 µM | [10] 32.3 µM | [11] > 100 µM | [12] > 100 µM | [13] > 100 µM | [14] > 100 µM | [15] > 100 µM | [16] 17.3 µM | [17] 70 µM | [18] > 100 µM | [19] 48 µM | [20] 70.5 µM | [54] > 100 µM | [21] 71.4 µM | [22] > 100 µM | [23] 11 µM | [55] > 100 µM | [56] > 100 µM | [24] > 100 µM | [25] > 100 µM | [26] 75.2 µM | [57] > 100 µM | [27] 68.9 µM | [28] 95.5 µM | [29] 65.5 µM | [30] > 100 µM | [31] 48.6 µM | [32] > 100 µM | [33] > 100 µM | [35] > 100 µM | [58] > 100 µM | [36] > 100 µM | [37] > 100 µM | [38] 85.5 µM | [39] > 100 µM | [40] > 100 µM | [59] 60.7 µM | [41] > 100 µM | [42] > 100 µM | [43] > 100 µM | [44] > 100 µM | [45] 4.72 µM | [46] > 100 µM | [47] > 100 µM | [48] > 100 µM | [49] 25.4 µM | [50] 30.8 µM | [51] > 100 µM | [52] > 100 µM
> 100 µM: [34]

CC(=O)Oc1cc(C)c(OC(C)=O)c2c1[C@H]1CC[C@]3(C)[C@@H](OC(C)=O)CC[C@H]3[C@@H]1CC2
inactive: [1] 18.4 µM | [2] 17.1 µM | [3] 15.8 µM | [4] 17.9 µM | [5] 19.2 µM | [7] 16.6 µM | [8] 17.7 µM | [53] 17.4 µM | [9] 17.1 µM | [10] 21.8 µM | [11] > 10 µM | [12] 13.9 µM | [13] 14.4 µM | [14] 18.4 µM | [15] 20 µM | [16] 13.9 µM | [17] 17.8 µM | [19] 19.9 µM | [20] 15.8 µM | [54] 17.5 µM | [21] 15.9 µM | [22] 15.3 µM | [23] 16.6 µM | [55] 16.7 µM | [56] 21.5 µM | [24] 18.2 µM | [25] 14.6 µM | [26] 23.4 µM | [57] 16.9 µM | [28] 16.3 µM | [29] 23.3 µM | [30] 11.6 µM | [31] 17.7 µM | [32] 16.8 µM | [33] 19.5 µM | [35] 20.6 µM | [58] 14.6 µM | [36] 23.7 µM | [37] 20.5 µM | [38] 20.7 µM | [39] 11.5 µM | [40] 29.8 µM | [59] 18.2 µM | [41] 17.1 µM | [43] 13.5 µM | [44] 17.5 µM | [45] 15.3 µM | [47] 18.7 µM | [48] 16.4 µM | [49] 16.1 µM | [50] 26.6 µM | [51] 17.5 µM | [52] 15.9 µM
17.5 µM: [34]
